From article PMC10403574, “Discovery of a pyrrole-pyridinimidazole derivative as novel SIRT6 inhibitor for sensitizing pancreatic cancer to gemcitabine” (Cell Death & Disease, 2023)

How the values were obtained:
HDAC10 = HDAC10 (Homo sapiens, UniProt Q969S8); test: Deacetylation activity selectivity, HDAC10; assay type: biochemical
From the text: Based on the above results, 8a was further investigated in this study. […] To further evaluate the selectivity of 8a for SIRT6, we examined the effect of 8a on the deacetylation activity of other HDAC family members, including HDAC1-HDAC11, SIRT1-SIRT3 and SIRT5. […] Furthermore, to confirm binding of 8a to SIRT6 in cells, we carried out the cellular thermal shift assay (CETSA). The CETSA approach builds on the thermal shift assay concept where ligand binding to its target protein enhances the target protein stability. We observed that the thermal stability of SIRT6 increased after 8a treatment (Figs. 2c, d).

BXPC-3 cells = test: Western blot of BXPC-3 cells; assay type: cell-based
Procedure: Cells were harvested and lysed in a lysis buffer (solarbio, R0010) supplementing 1 mM PMSF and protease inhibitor (TargetMol, USA). […] The blocked membrane was incubated with primary antibodies:SIRT6 (1:1000, Cell Signaling Technology, Cat#12486S, RRID:AB_2636969), Histone H3 Antibody (1:1000, Cell Signaling Technology, Cat#9715S, RRID:AB_331563), β-Actin (1:2000, Cell Signaling Technology, Cat#4970S, RRID:AB_2223172), Cleaved caspases-3 (1:1000, Cell Signaling Technology, Cat#9661S, RRID:AB_2341188), Cleaved Caspase-9 (Asp315) (1:1000, Cell Signaling Technology, Cat#20750S,RRID:AB_2798848), Cleaved PARP (1:1000, Cell Signaling Technology, Cat#5625S, RRID:AB_10699459), AKT (1:1000, Cell Signaling Technology, Cat#9272S, RRID:AB_329827), Phospho-AKT (Ser473) (D9E) (1:1000, Cell Signaling Technology, Cat#4060S, RRID:AB_2315049), ERK1/2 (1:1000, Cell Signaling Technology, Cat#4695S, RRID:AB_390779), Phospho-p44/42 MAPK (ERK1/2) (Thr202/Tyr204) (1:1000, Cell Signaling Technology, Cat#4370S, RRID:AB_2315112), Cyclin D1 (E3P5S) (1:1000, Cell Signaling Technology, Cat#55506 S, RRID:AB_2827374), Phospho-mTOR(Ser2448) (1:1000,Cell Signaling Technology, Cat#5536S, RRID:AB_10691552), Phospho-p70S6Kinase (Thr421/Ser424) (1:1000, Cell Signaling Technology, Cat#9204 S, RRID:AB_2265913), Phospho-Histone H2A.X (Ser139) (1:1000, Cell Signaling Technology, Cat#9718S, RRID:AB_2118009) at 4 °C overnight. After being washed with TBST, the membranes were incubated with horseradish peroxidase-conjugated secondary antibodies at room temperature for 1 h. Then, the membranes were detected by Tanon 5200 (Tanon, Beijing, China).

BXPC-3 xenografts = test: BXPC-3 tumor xenograft in nude mice; assay type: in vivo, BALB/c nude mice
Procedure: Female BALB/c nude mice (14 ± 2 g, 4 weeks old) were purchase. About 2 × 10^6 of BXPC-3 cells were inoculated into nude mouse flanks. When the tumor volume reached approximately 100 mm^3, mice were randomly divided into four groups with six mice per group before treatment and then treated with vehicle, 8a (20 mg/kg), gemcitabine (10 mg/kg) and their combination every 2 days. Tumor volumes and body weight were measured every 3 days, and use the formula to calculate the tumor volume: V = (L × W × W)/2 (V, tumor volume; L, length; and W, width). Mice were sacrificed and tumor tissues were removed. Tumor tissues were fixed with paraformaldehyde (4%) and embedded with paraffin.
To further confirm whether 8a can enhance the antitumor effects of gemcitabine in vivo, the BXPC-3 PDAC xenografts were used. The mice with tumors received intraperitoneal injection of compound 8a (20 mg/kg), gemcitabine (10 mg/kg), or their combination once every 2 days for 4 weeks. Tumor volumes and body weight of mice were monitored every 3 days.

SIRT6 = SIRT6 (Homo sapiens, UniProt Q8N6T7); test: Biolayer interferometry (BLI) binding; set-up: The human full-length SIRT6 gene was inserted into the prokaryotic expression vector (pET-28a (+)); inferred from the pET-28a(+) vector, Ni-NTA purification and Ni-NTA biosensor loading); made in house; host or cells: Escherichia coli BL21 (DE3); conditions: Octet RED, Ni-NTA biosensors, 25 °C
SIRT6, sequence (Q8N6T7 whole entry): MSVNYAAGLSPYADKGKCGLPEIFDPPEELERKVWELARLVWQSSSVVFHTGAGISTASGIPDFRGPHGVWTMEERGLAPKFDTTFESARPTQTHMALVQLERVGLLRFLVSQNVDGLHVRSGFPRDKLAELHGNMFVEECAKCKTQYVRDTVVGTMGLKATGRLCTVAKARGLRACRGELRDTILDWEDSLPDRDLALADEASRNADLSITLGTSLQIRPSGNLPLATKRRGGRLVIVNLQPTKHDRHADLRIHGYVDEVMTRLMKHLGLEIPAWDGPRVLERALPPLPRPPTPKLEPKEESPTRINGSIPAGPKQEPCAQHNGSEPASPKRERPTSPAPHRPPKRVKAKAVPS
Procedure: Binding assays were performed using Ni-NTA biosensors on the Octet® Red96 system (ForteBio, Menlo Park, CA) in 96-well microplates and measuring changes wavelength shift (in nm) over time (s). All steps were carried out at 25 °C with the plate shaking speed of 1000 rpm. The total working volume was 200 μL in 96-well microplate (Greiner Bio-one, Germany). The SIRT6 protein and compounds were diluted with phosphate-buffered saline (PBS, pH 7.4). Ni-NTA biosensors were prewetted for at least 10 min in PBS prior to the assay. Afterwards, the Ni-NTA biosensors were immobilized for 180 s with 200 μL culture containing 20 μg/mL SIRT6. After loading, sensors were washed in PBS buffer for another 120 s and transferred to wells containing different concentrations of compound 8a (0, 12.5, 25, 50, 100 μM) for binding. Finally, the dissociation step was carried out in kinetic buffer for 180 s. The assay data were processed and calculated using the ForteBio Octet RED analysis software.

HDAC10, sequence (Q969S8 whole entry, species assumed): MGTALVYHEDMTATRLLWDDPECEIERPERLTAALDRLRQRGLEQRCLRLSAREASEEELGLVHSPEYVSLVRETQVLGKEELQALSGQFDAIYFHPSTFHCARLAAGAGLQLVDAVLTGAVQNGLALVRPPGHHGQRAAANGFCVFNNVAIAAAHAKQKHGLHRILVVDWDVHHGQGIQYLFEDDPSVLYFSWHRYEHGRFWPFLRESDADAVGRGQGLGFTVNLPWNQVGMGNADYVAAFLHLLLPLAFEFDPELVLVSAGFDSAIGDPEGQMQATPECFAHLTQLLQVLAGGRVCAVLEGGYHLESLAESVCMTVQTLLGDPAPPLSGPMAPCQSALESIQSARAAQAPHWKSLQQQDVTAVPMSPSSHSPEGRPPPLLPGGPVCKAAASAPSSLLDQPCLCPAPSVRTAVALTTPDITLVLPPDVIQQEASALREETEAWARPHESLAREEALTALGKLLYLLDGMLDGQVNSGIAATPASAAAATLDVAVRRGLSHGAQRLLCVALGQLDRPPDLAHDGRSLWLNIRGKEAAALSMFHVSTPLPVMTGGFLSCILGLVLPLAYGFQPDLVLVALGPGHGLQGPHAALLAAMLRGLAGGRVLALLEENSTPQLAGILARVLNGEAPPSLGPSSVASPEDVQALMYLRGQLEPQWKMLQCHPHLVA

Br.CN(C)C(SCCCCCCn1cnc2c(-c3cc(Br)c(Br)[nH]3)nccc21)=[N+](C)C.[Cl-] [Compound 8a]
IC50 (HDAC10): > 200 µM
cyclin D1 expression (BXPC-3 cells; BXPC-3, 48 h, dose-dependent): decreased
expression of cleaved-PARP, cleaved-Caspase3, and cleaved-Caspase9 (BXPC-3 cells; BXPC-3, western blot): significantly up-regulated
p-mTOR, p-P70S6K, p-AKT, and p-ERK (BXPC-3 cells; BXPC-3, western blot): significantly down-regulated
acetylation level of H3K9 (BXPC-3 cells; BXPC-3 cells, western blot, dose-dependent): increased
tumor inhibition (BXPC-3 xenografts; 8a 20 mg/kg i.p. once every 2 days for 4 weeks, vs control mice): 27%
Ac-H3K9 in tumor tissue (BXPC-3 xenografts; western blotting of tumor tissue samples, 8a 20 mg/kg): elevated
Kd (SIRT6): 16 ± 0.313 µM
